Values quoted from earlier work, collected in patent US20250017946A1, “COMBINATION OF A BILE ACID AND A PHENYL BUTYRATE COMPOUND FOR THE TREATMENT OF NEURODEGENERATIVE DISEASES” (Amylyx Pharmaceuticals, Inc., priority 2021, published 2025).

Tested on: patient populations
Details: for less common or rare adverse events / most commonly reported adverse events: individual component, multiple patient populations

SMILES	less common or rare adverse events	most commonly reported adverse events	most common adverse reactions reported (≥1%) (use of TURSO)
O=C(O)CCCc1ccccc1 [PB, sodium phenylbutyrate]	nausea, vomiting, stomach upset, stomach pain, gastritis, headache, and skin rash	Menstrual irregularities, decreased appetite, sweat-like body odor, and bad taste	
C[C@H](CCC(=O)NCCS(=O)(=O)O)[C@H]1CC[C@H]2[C@@H]3[C@@H](O)C[C@@H]4C[C@H](O)CC[C@]4(C)[C@H]3CC[C@]12C [TURSO, tauroursodeoxycholic acid]	skin rash and vomiting	mild diarrhea, abdominal and pain	abdominal discomfort, abdominal pain, diarrhea, nausea, pruritus, and rash
